Results published in ChEMBL document CHEMBL1152983, “Substitution of the arginine/leucine residues in apidaecin Ib with peptoid residues: effect on antimicrobial activity, cellular uptake, and proteolytic degradation” (J Med Chem, 2009).
In brackets after ≈: the same amount, converted by molar mass. Starred links: 1 amine or outer side, 2 acyl side, 3 side chain; linkers in the order of their positions; H or OH if unused. Non-standard residues stand in square brackets, D forms with d. Residues, ends and D or L forms follow the SMILES beside them. Gly(N-(CH2)3-guanidino) = N=C(N)NCCCNCC(=O)O; X1 = N=C(N)NCCN(CC(=O)[*:2])[*:1]; NhArg = N=C(N)NCCCCNCC(=O)O

Key:
[1] = Membrane permeabilization in eukaryotic membrane model consisting of single unilamellar vesicle of L-alpha-phosphatidylcholine-cholesterol assessed as 5(6)-carboxyfluorescein release at high peptide-to-lipid ratio after 20 mins by fluorescence assay; format: ADME, cell membranes
[2] = tested on: Salmonella enterica subsp. enterica; experiment: Antimicrobial activity against Salmonella Typhimurium ATCC 14028 after 18 hrs by broth microdilution susceptibility test; format: functional, Salmonella enterica subsp. enterica serovar Typhimurium; details: ATCC 14028, 18 h
Klebsiella pneumoniae = experiment: Antimicrobial activity against Klebsiella pneumoniae 22 after 18 hrs by broth microdilution susceptibility test; format: functional; details: Klebsiella pneumoniae, 22, 18 h
Escherichia coli [3] = experiment: Antimicrobial activity against Escherichia coli ATCC 25922 after 18 hrs by broth microdilution susceptibility test; format: functional; details: ATCC 25922, 18 h
[4] = Toxicity in human erythrocytes assessed as hemolytic activity at 30 uM after 60 mins; format: cell-based, Erythrocyte; details: read-out: Activity
[5] = Membrane permeabilization in eukaryotic membrane model consisting of single unilamellar vesicle of L-alpha-phosphatidylcholine-cholesterol assessed as 5(6)-carboxyfluorescein release at high peptide-to-lipid ratio after 50 mins by fluorescence assay; format: ADME, cell membranes
[6] = Toxicity in human erythrocytes assessed as hemolytic activity at 300 uM after 60 mins; format: cell-based, Erythrocyte; details: read-out: Activity
[7] = tested on: Salmonella enterica subsp. enterica; experiment: Antimicrobial activity against Salmonella enteritidis PD1 after 18 hrs by broth microdilution susceptibility test; format: functional, Salmonella enterica subsp. enterica serovar Enteritidis; details: PD1, 18 h
Escherichia coli [8] = experiment: Antimicrobial activity against Escherichia coli ML35 after 18 hrs by broth microdilution susceptibility test; format: functional; details: ML35, 18 h
[9] = tested on: Salmonella enterica subsp. enterica; experiment: Antimicrobial activity against Salmonella enteritidis D5 after 18 hrs by broth microdilution susceptibility test; format: functional, Salmonella enterica subsp. enterica serovar Enteritidis; details: D5, 18 h
Escherichia coli [10] = experiment: Antimicrobial activity against Escherichia coli O18K1H7 after 18 hrs by broth microdilution susceptibility test; format: functional; details: O18K1H7, 18 h
[11] = Chemical stability assessed as compound degradation at 2 mg/mL after 24 hrs by HPLC and ESI-MS analysis in presence of trypsin; format: physicochemical; details: isolated protein

Activity [1]	MIC [2] [µM]	MIC (Klebsiella pneumoniae) [µM]	MIC (Escherichia coli [3]) [µM]	Activity [5]	MIC [7] [µM]	MIC (Escherichia coli [8]) [µM]	MIC [9] [µM]	MIC (Escherichia coli [10]) [µM]	Stability [11]	SMILES	hemolysis at 1 h, 30 µM [4] [%]	hemolysis at 1 h, 300 µM [6] [%]
Not Active	> 128	> 128	128 (≈ 257 µg/mL)	Not Active						CC[C@H](C)[C@H](NC(=O)[C@H](Cc1ccc(O)cc1)NC(=O)[C@@H](NC(=O)[C@@H]1CCCN1C(=O)[C@H](CCCNC(=N)N)NC(=O)[C@H](CC(N)=O)NC(=O)[C@H](CC(N)=O)NC(=O)CN)C(C)C)C(=O)N1CCC[C@H]1C(=O)N[C@@H](CCC(N)=O)C(=O)N1CCC[C@H]1C(=O)N[C@@H](CCCNC(=N)N)C(=O)N1CCC[C@H]1C(=O)N[C@@H](Cc1cnc[nH]1)C(=O)N1CCC[C@H]1C(=O)N[C@@H](CCCNC(=N)N)C(=O)N[C@@H](CC(C)C)C(=O)O (H-GNNRPVYIPQPRPHPRL-OH)	≤ 2	
Not Active	> 128	> 128	> 128	Not Active	> 128	> 128	> 128	> 128	Stable	CC[C@H](C)[C@H](NC(=O)[C@H](Cc1ccc(O)cc1)NC(=O)[C@@H](NC(=O)[C@@H]1CCCN1C(=O)[C@H](CCCNC(=N)N)NC(=O)[C@H](CC(N)=O)NC(=O)[C@H](CC(N)=O)NC(=O)CN)C(C)C)C(=O)N1CCC[C@H]1C(=O)N[C@@H](CCC(N)=O)C(=O)N1CCC[C@H]1C(=O)N[C@@H](CCCNC(=N)N)C(=O)N1CCC[C@H]1C(=O)N1CCC[C@H]1C(=O)N[C@@H](Cc1cnc[nH]1)C(=O)N1CCC[C@H]1C(=O)N(CCCNC(=N)N)CC(=O)N[C@@H](CC(C)C)C(=O)O (H-GNNRPVYIPQPRPPHP[Gly(N-(CH2)3-guanidino)]L-OH)	≤ 2	0.44
Not Active	> 128	> 128	> 128	Not Active	> 128	> 128	> 128	> 128		CC[C@H](C)[C@H](NC(=O)[C@H](Cc1ccc(O)cc1)NC(=O)[C@@H](NC(=O)[C@@H]1CCCN1C(=O)[C@H](CCCNC(=N)N)NC(=O)[C@H](CC(N)=O)NC(=O)[C@H](CC(N)=O)NC(=O)CN)C(C)C)C(=O)N1CCC[C@H]1C(=O)N[C@@H](CCC(N)=O)C(=O)N1CCC[C@H]1C(=O)N[C@@H](CCCNC(=N)N)C(=O)N1CCC[C@H]1C(=O)N1CCC[C@H]1C(=O)N[C@@H](Cc1cnc[nH]1)C(=O)N1CCC[C@H]1C(=O)N(CCCCNC(=N)N)CC(=O)N[C@@H](CC(C)C)C(=O)O (H-GNNRPVYIPQPRPPHP[NhArg]L-OH)	≤ 2	0.81
Not Active	> 128	> 128	> 128	Not Active	> 128	> 128	> 128	> 128		CC[C@H](C)[C@H](NC(=O)[C@H](Cc1ccc(O)cc1)NC(=O)[C@@H](NC(=O)[C@@H]1CCCN1C(=O)[C@H](CCCNC(=N)N)NC(=O)[C@H](CC(N)=O)NC(=O)[C@H](CC(N)=O)NC(=O)CN)C(C)C)C(=O)N1CCC[C@H]1C(=O)N[C@@H](CCC(N)=O)C(=O)N1CCC[C@H]1C(=O)N[C@@H](CCCNC(=N)N)C(=O)N1CCC[C@H]1C(=O)N1CCC[C@H]1C(=O)N[C@@H](Cc1cnc[nH]1)C(=O)N1CCC[C@H]1C(=O)N(CCNC(=N)N)CC(=O)N[C@@H](CC(C)C)C(=O)O (H-GNNRPVYIPQPRPPHP[X1]L-OH)	≤ 2	0.62
Not Active	16 (≈ 33.7 µg/mL)	> 128	16 (≈ 33.7 µg/mL)	Not Active	32 (≈ 67.5 µg/mL)	16 (≈ 33.7 µg/mL)	16 (≈ 33.7 µg/mL)	16 (≈ 33.7 µg/mL)		CC[C@H](C)[C@H](NC(=O)[C@H](Cc1ccc(O)cc1)NC(=O)[C@@H](NC(=O)[C@@H]1CCCN1C(=O)[C@H](CCCNC(=N)N)NC(=O)[C@H](CC(N)=O)NC(=O)[C@H](CC(N)=O)NC(=O)CN)C(C)C)C(=O)N1CCC[C@H]1C(=O)N[C@@H](CCC(N)=O)C(=O)N1CCC[C@H]1C(=O)N(CCCNC(=N)N)CC(=O)N1CCC[C@H]1C(=O)N1CCC[C@H]1C(=O)N[C@@H](Cc1cnc[nH]1)C(=O)N1CCC[C@H]1C(=O)N[C@@H](CCCNC(=N)N)C(=O)N[C@@H](CC(C)C)C(=O)O (H-GNNRPVYIPQP[Gly(N-(CH2)3-guanidino)]PPHPRL-OH)	≤ 2	2
